According to PubChem BioAssay AID1918996 (Molecular Pharmacology Branch, DTP, NCI, 2023):
Where “and” joins values, the source holds several entries; their conditions need not be identical. Equal values may be shown once.

System: 349418-098-R-PDC complex spheroid growth
Experiment: Anticancer human tumor 349418-098-R-PDC patient-derived lung adenocarcinoma cell line growth inhibition [AhR]
Conditions: for viability, T/C: stronger effect = lower value
Description: Multicellular complex tumor spheroid response to aryl hydrocarbon receptor antagonists in combination with a variety of drugs and investigational agents in selected tumor cell lines
The current study was undertaken to assess response to aryl hydrocarbon receptor antagonists in combination with standard-of-care drugs and investigational agents in solid tumor complex spheroid models. Complex spheroids include a stromal component modeled by human endothelial cells (HUVEC) and fibroblasts modeled by human mesenchymal stem cells (MSCs). The concentration ranges selected for each drug and investigational agent were based upon clinically achievable concentrations if the clinical Cmax of the agent was known.
Compounds. The drugs and investigational agents: BAY 2416964 (NSC825713), GNF351 (NSC835774), CH-223191 (NSC835775), CPI-455 (NSC825282), aza-TdCyd (NSC777586), decitabine (NSC127716), belinostat (NSC758774), entinostat (NSC756642), pevonedistat (NSC761192), tazemetostat (NSC777109), talazoparib (NSC765396), olaparib (NSC753686), selinexor (NSC780203), nedisertib (M3814, NSC802822), bortezomib (NSC756655), venetoclax (NSC766270), doxorubicin (NSC123127), elimusertib (BAY189344, NSC800525), ceralasertib (AZD6738, NSC777638), TAK-243 (NSC785004), alisertib (NSC759677), etoposide (NSC141540), topotecan (NSC609699), eribulin (NSC707389), gemcitabine (NSC613327), carboplatin (NSC241240), cisplatin (NSC119875), and SN-38 (NSC673596) were obtained from the National Cancer Institute (NCI) Developmental Therapeutics Program Chemical Repository (32). The FDA-approved anticancer drug set is available from the Developmental Therapeutics Program at https://dtp.cancer.gov/organization/dscb/obtaining/available plates.htm. […] The stock solutions were prepared in dimethyl sulfoxide (DMSO, Sigma-Aldrich, St. Louis, MO, cat. D2650), except for the platinum compounds which were prepared in saline (Quality Biological, Gaithersburg, MD, cat. 114-055-101), at 800-fold the tested concentration and stored at -70 degrees C prior to their use. All drugs and investigational agents were tested over a range starting from a high concentration at or near the clinical Cmax and decreasing in half-log increments. If the clinical Cmax for an agent had not been determined, the highest concentration tested was 10 microM (Table 1).
Cell Culture. All cells were maintained in an incubator at 37 degrees C and 5% CO2 with 95% humidity. The PDC lines were cultured according to standard operating procedures established by the NCI PDMR (https://pdmr.cancer.gov). Briefly, all PDCs were thawed and cultured in Matrigel-coated flasks prepared with a working solution of 1X Ham's F-12 nutrient mix, without supplementation (Invitrogen, Waltham, MA, cat. 11765054), 100 U/mL penicillin-streptomycin (Invitrogen, cat. 15140122), and 2.5% Matrigel (Corning Inc., Corning, NY, cat. 354248) for the first three passages. All PDCs were cultured in complete DMEM/F-12 media containing advanced DMEM/F-12 (Invitrogen, cat. 12634028), 4.9% defined fetal bovine serum, heat inactivated (HyClone Laboratories Inc., Logan, UT, cat. SH30070.03HI), 389 ng/mL hydrocortisone (Sigma-Aldrich, cat. H4001), 9.7 ng/mL human EGF recombinant protein (Invitrogen, cat. PHG0313), 23.4 microg/mL adenine (Sigma-Aldrich, cat. A2786), 97.3 U/mL penicillin-streptomycin (Invitrogen, cat. 15140122), 1.9 mM L-glutamine (Invitrogen, cat. 25030081), and 9.7 microM Y-27632 dihydrochloride (Tocris Bioscience, Bristol, United Kingdom, cat. 1254). The PDCs were cultured in complete DMEM/F12 media without 10 microM Y-27632 dihydrochloride for at least two passages prior to the screen. The established cell lines NCI-H1341 and […] were cultured in DMEM/F-12, HEPES (Invitrogen, cat. 11330032), 5% defined fetal bovine serum (HyClone Laboratories Inc., cat. SH30070.03), ITS premix universal culture supplement [insulin (5 microg/mL), transferrin (5 microg/mL), and selenious acid (5 ng/mL)] […]
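Note: spheroids exposed to agents for seven days before luminescence viability read.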
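Throughout, for viability, T/C: spheroids also contain HUVEC endothelial cells and human MSC stroma.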

Cn1ncnc1C1c2n[nH]c(=O)c3cc(F)cc(c23)NC1c1ccc(F)cc1 (configuration not stated) + CC(CO)NC(=O)c1cc(-c2ccc(Cl)cc2)nn(-c2cnn(C)c2)c1=O
IC50 (curve of first compound, second compound 0.1 µM): > 100 nM | IC50 (curve of first compound, second compound 0.316 µM): > 100 nM | IC50 (curve of first compound, second compound 1 µM): > 100 nM | IC50 (curve of first compound, second compound 3.16 µM): 14.3 nM | IC50 (curve of first compound, second compound 10 µM): 4.21 nM | viability, T/C (second compound 0.1 µM, first compound 0.000316 µM): 81.4% | viability, T/C (second compound 0.1 µM, first compound 0.001 µM): 85.1% | viability, T/C (second compound 0.1 µM, first compound 0.00316 µM): 94% | viability, T/C (second compound 0.1 µM, first compound 0.01 µM): 96.2% | viability, T/C (second compound 0.1 µM, first compound 0.0316 µM): 84.9% | viability, T/C (second compound 0.1 µM, first compound 0.1 µM): 87.3% | viability, T/C (second compound 0.316 µM, first compound 0.000316 µM): 71.8% | viability, T/C (second compound 0.316 µM, first compound 0.001 µM): 84.4% | viability, T/C (second compound 0.316 µM, first compound 0.00316 µM): 60.6% | viability, T/C (second compound 0.316 µM, first compound 0.01 µM): 76.3% | viability, T/C (second compound 0.316 µM, first compound 0.0316 µM): 48% | viability, T/C (second compound 0.316 µM, first compound 0.1 µM): 60.1% | viability, T/C (second compound 1 µM, first compound 0.000316 µM): 78.1% | viability, T/C (second compound 1 µM, first compound 0.001 µM): 106% | viability, T/C (second compound 1 µM, first compound 0.00316 µM): 83.9% | viability, T/C (second compound 1 µM, first compound 0.01 µM): 52.2% | viability, T/C (second compound 1 µM, first compound 0.0316 µM): 51.2% | viability, T/C (second compound 1 µM, first compound 0.1 µM): 56.8% | viability, T/C (second compound 3.16 µM, first compound 0.000316 µM): 83.1% | viability, T/C (second compound 3.16 µM, first compound 0.001 µM): 68.9% | viability, T/C (second compound 3.16 µM, first compound 0.00316 µM): 55.7% | viability, T/C (second compound 3.16 µM, first compound 0.01 µM): 61% | viability, T/C (second compound 3.16 µM, first compound 0.0316 µM): 37.6% | viability, T/C (second compound 3.16 µM, first compound 0.1 µM): 45.3% | viability, T/C (second compound 10 µM, first compound 0.000316 µM): 39.9% | viability, T/C (second compound 10 µM, first compound 0.001 µM): 64.7% | viability, T/C (second compound 10 µM, first compound 0.00316 µM): 59.8% | viability, T/C (second compound 10 µM, first compound 0.01 µM): 35.2% | viability, T/C (second compound 10 µM, first compound 0.0316 µM): 32.4% | viability, T/C (second compound 10 µM, first compound 0.1 µM): 39.2%

CC[C@@]1(O)C(=O)OCc2c1cc1n(c2=O)Cc2cc3c(CN(C)C)c(O)ccc3nc2-1
viability, T/C (compound 0.000316 µM): 94.4% and 113% and 119% | viability, T/C (compound 0.001 µM): 97.3% and 89.4% and 89.3% | viability, T/C (compound 0.00316 µM): 93.6% and 63.5% and 81.3% | viability, T/C (compound 0.01 µM): 84.2% and 87.1% and 64% | viability, T/C (compound 0.0316 µM): 43.4% and 42.2% and 21.3% | viability, T/C (compound 0.1 µM): 15.3% and 21.5% and 13.5% | IC50 (curve of compound): 26.2 nM and 25.8 nM and 12.9 nM
